Experimental data reported in article PMC8911579, “(−)-Naringenin 4′,7-dimethyl Ether Isolated from Nardostachys jatamansi Relieves Pain through Inhibition of Multiple Channels” (Molecules, 2022).

Tests used:
[1] = pharmacokinetic study, plasma concentration after intraperitoneal administration; assay type: in vivo, ICR mice
Procedure: The pharmacokinetic study was performed in male ICR mice weighted 20 ± 2 g. The mice were fasted for 12 h before intraperitoneal administration of (−)-NRG-DM at 50 mg/kg. Blood samples (0.5 mL) were collected at 0.5, 1, and 1.5 h from the abdominal aorta into the heparinized tubes after drug administration. The plasma was separated by centrifugation (11,000 rpm for 5 min) and then stored at −80 °C until analyzed. Plasma samples (20 μL) were treated with the addition of the internal standard solution (20 μL) and acetonitrile (300 μL), then vortexed for 15 min (1000 rpm, RT), and centrifuged of 15 min (3700 rpm, 4 °C). The supernatants were collected for analysis using LC−MS/MS. The data were processed using Analyst software version 1.6.3 (Sciex, ON, Canada).

[2] = tested on: delayed rectifier potassium currents (IK) in DRG neurons; experiment: whole-cell patch-clamp, delayed rectifier potassium currents in DRG neurons; assay type: cell-based, mouse
Excerpt: The currents in mouse DRG neurons can be separated into IA and IK. They could be distinguished by applying voltage steps from a holding potential of −50 mV, at which IA was almost completely inactivated, while IK remained unchanged. Thereby, IA could be separated by subtracting IK from the total potassium currents. According to these electrophysiological characteristics, the effects of (−)-NRG-DM on potassium currents were examined (Figure 5A). […] Additionally, the effects of (−)-NRG-DM on the kinetics of the Kv channels were further characterized. The Kv currents were elicited by multiple 1500 ms depolarization pulses ranging from −80 mV to +90 mV in 10 mV increments from a holding potential of −80 mV. […] The values of V1/2 in the absence and presence of 10 µM (−)-NRG-DM were −6.43 ± 1.21 mV and −8.08 ± 2.02 mV, respectively (Figure 5D).
Dorsal root ganglia (DRG) were dissected from male C57BL/6 mice aged 4~6 weeks. The ganglia were first cut into small pieces and then digested at 37 °C for 20 min in DMEM containing 1 mg/mL collagenase type I and 0.25 mg/mL trypsin (Sigma-Aldrich). Subsequently, the digested small fragments were terminated and resuspended with DMEM/F12 growth medium (Gibco) supplemented with 10% fetal bovine serum (FBS) (Gibco). […]

TRPA1 channels = target: T1, TRPA1 channels (Homo sapiens, UniProt O75762); experiment: whole-cell patch-clamp, TRPA1 stably expressed in HEK293 cells; assay type: cell-based; details: 30 µM
T1 construct: expressed in transfected cells

Nav1.7 channel = Nav1.7 channel (Homo sapiens, UniProt Q15858); experiment: whole-cell patch-clamp, Nav1.7 stably expressed in HEK293 cells
[3] = tested on: TTX-resistant (TTX-R) currents in small-diameter DRG neurons; assay type: cell-based, mouse; details: 300 nM TTX
[4] = tested on: acutely isolated mouse small-diameter DRG neurons; experiment: whole-cell current-clamp, action potential firing in DRG neurons; assay type: cell-based; details: for action potential amplitude: 200 pA current injection, 500 ms, control 98.00 ± 6.19 mV
Excerpt: To investigate the underlying mechanism of (−)-NRG-DM-mediated analgesic activity, whole-cell current-clamp technology was applied to examine the effects of (−)-NRG-DM on the action potential firing in acutely isolated mouse small-diameter DRG neurons. The action potentials were evoked by a current injection of 200 pA for a 500 ms period. The threshold was defined by the first amplitude at which an action potential with a membrane potential larger than 0 mV was produced, and the amplitude was defined as the peak relative to the resting membrane potential. […] The amplitudes were reduced from 98.00 ± 6.19 mV to 95.00 ± 5.65 mV, 93.40 ± 8.27 mV, 86.80 ± 9.75 mV, and 74.40 ± 7.08 mV after perfusion of 1 μM, 3 μM, 10 μM, and 30 μM (−)-NRG-DM, respectively (Figure 4C, n = 5). Current threshold, the injection current required to elicit a single all-or-none action potential, was determined by applying 500 ms depolarizing currents of increasing magnitude. […] The inhibitory effects of (−)-NRG-DM on the firing frequency and the amplitudes of action potentials were partially reversible after washout.
Dorsal root ganglia (DRG) were dissected from male C57BL/6 mice aged 4~6 weeks. The ganglia were first cut into small pieces and then digested at 37 °C for 20 min in DMEM containing 1 mg/mL collagenase type I and 0.25 mg/mL trypsin (Sigma-Aldrich). Subsequently, the digested small fragments were terminated and resuspended with DMEM/F12 growth medium (Gibco) supplemented with 10% fetal bovine serum (FBS) (Gibco). Finally, the dissociated DRG neurons were seeded onto 24-well plates with poly-L-lysine-coated coverslips and placed in a 37 °C, 5% CO2 incubator for at least 1 h before electrophysiological experiments.

[5] = tested on: mustard oil-induced colorectal pain; experiment: mustard oil-induced mouse colorectal pain model; assay type: in vivo, C57BL/6 mice; details: 30 min observation
Procedure: The dose-dependent relief of somatic pain in the formalin model prompted us to ask whether it could attenuate the visceral pain. Thereby, we constructed the mustard oil-induced mouse colorectal pain model as previously described. […] As those observed in intraplantar formalin-induced pain, (−)-NRG-DM dose dependently relieved intracolonic mustard oil-caused writhing (Figure 3A). After intraperitoneal application of 30 mg/kg and 50 mg/kg (−)-NRG-DM, the writhing number reduced by approximately 60% and 80%, respectively (Figure 3B).
Male C57BL/6 mice, weighing 23~25 g, were randomly assigned into 3 groups (n = 10 for each group) and placed in a transparent observation chamber for at least 20 min prior to the experiment. Mice were intraperitoneally administrated with vehicle or (−)-NRG-DM (30 or 50 mg/kg) 30 min before the injection of diluted mustard. Subsequently, 50 µL of diluted mustard oil solution (0.75% in 70% ethanol) was intracolonically administrated and the number of pain responses was counted for 30 min. In the present study, postures defined as pain-related behaviors were in agreement with previous descriptions: (1) licking of the abdomen, (2) stretching the abdomen, (3) squashing of lower abdomen against the floor, (4) abdominal wall retractions.

Chain of Nav1.7 channel (Q15858 whole entry): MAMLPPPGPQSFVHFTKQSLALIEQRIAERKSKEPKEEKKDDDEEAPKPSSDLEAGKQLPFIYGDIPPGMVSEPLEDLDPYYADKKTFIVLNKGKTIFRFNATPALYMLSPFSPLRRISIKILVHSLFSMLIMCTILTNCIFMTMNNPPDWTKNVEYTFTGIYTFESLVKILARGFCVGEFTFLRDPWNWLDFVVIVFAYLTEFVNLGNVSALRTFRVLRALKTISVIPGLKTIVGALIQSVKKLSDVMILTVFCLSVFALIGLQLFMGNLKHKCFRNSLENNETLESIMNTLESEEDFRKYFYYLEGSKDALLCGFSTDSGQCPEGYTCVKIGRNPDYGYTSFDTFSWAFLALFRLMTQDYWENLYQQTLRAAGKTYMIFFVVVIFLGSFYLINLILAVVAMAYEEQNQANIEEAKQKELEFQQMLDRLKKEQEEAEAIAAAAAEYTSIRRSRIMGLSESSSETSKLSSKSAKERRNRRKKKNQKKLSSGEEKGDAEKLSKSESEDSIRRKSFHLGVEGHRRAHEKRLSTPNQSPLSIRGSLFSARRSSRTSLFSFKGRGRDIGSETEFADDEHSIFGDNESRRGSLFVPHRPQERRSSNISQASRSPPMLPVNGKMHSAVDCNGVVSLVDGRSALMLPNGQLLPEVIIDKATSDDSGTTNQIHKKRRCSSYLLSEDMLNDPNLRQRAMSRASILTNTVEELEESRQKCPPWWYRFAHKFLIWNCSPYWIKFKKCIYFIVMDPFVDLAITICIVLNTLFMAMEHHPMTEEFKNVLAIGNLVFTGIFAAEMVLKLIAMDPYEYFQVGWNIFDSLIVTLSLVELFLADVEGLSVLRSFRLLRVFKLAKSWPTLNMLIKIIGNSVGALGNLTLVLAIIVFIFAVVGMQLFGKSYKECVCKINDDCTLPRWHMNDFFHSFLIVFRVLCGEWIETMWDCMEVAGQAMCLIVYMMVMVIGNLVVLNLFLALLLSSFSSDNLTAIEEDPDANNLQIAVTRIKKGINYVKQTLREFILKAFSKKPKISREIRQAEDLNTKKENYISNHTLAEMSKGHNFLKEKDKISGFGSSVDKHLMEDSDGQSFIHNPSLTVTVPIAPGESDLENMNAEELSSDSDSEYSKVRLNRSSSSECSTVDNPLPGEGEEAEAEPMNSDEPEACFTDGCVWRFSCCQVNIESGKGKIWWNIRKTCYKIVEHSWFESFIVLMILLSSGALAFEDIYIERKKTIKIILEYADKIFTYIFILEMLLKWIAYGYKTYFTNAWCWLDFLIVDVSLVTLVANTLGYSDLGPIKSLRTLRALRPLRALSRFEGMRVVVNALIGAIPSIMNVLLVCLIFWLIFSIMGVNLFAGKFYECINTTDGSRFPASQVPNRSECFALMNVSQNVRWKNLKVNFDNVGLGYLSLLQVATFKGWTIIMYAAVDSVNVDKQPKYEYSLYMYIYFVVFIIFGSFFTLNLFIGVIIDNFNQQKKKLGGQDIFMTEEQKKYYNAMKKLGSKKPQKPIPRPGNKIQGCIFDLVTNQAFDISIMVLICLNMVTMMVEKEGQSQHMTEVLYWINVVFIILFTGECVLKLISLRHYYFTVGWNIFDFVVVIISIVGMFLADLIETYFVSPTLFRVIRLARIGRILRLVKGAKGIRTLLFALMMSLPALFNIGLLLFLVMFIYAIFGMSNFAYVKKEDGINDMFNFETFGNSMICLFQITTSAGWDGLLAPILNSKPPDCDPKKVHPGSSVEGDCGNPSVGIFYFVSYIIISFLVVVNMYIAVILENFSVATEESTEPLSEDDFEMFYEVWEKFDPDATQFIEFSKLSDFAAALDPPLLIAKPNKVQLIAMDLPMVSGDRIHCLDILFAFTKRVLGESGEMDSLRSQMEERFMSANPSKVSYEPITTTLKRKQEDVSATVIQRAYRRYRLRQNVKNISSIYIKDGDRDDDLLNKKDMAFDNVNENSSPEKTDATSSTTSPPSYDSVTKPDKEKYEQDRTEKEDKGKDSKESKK
T1 sequence (O75762 whole entry): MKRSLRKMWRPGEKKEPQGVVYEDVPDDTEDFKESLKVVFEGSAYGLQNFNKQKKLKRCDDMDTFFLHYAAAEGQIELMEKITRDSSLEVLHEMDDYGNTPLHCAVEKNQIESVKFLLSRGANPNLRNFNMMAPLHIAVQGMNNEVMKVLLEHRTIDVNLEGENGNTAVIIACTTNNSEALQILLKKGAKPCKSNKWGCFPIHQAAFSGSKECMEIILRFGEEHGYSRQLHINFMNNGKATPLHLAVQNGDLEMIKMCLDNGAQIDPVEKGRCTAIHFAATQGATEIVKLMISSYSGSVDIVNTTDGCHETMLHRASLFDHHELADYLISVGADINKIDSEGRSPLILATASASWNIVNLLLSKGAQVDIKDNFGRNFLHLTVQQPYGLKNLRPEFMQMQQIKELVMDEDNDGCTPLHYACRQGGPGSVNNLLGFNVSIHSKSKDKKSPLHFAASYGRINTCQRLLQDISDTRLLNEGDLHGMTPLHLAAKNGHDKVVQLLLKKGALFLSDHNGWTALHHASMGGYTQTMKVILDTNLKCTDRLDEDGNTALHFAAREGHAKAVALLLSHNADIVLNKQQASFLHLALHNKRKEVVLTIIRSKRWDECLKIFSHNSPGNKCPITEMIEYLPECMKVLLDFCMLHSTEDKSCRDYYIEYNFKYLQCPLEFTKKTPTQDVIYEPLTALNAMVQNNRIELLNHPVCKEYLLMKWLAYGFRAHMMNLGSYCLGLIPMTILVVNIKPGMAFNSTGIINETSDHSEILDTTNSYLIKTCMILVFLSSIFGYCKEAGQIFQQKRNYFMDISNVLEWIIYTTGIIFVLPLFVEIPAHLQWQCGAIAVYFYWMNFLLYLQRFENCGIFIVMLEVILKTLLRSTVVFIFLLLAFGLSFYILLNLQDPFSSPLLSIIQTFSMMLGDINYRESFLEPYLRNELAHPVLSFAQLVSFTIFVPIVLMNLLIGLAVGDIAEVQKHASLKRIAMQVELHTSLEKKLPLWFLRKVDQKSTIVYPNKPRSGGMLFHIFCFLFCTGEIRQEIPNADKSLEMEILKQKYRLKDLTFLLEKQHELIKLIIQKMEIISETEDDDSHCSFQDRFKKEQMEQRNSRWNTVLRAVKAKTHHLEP

COc1ccc([C@H]2CC(=O)c3c(O)cc(OC)cc3O2)cc1 [(−)-NRG-DM, (−)-naringenin 4′,7-dimethyl ether]
plasma concentration ([1]; 0.5~1.5 h after i.p. injection at 50 mg/kg): around 7 µM
concentration at 0.5 h ([1]; male, ICR, mouse, ip, plasma, 50 mg/kg i.p., 0.5 h, mean ± SEM): 2290 ± 183 ng/mL
concentration at 1 h ([1]; male, ICR, mouse, ip, plasma, 50 mg/kg i.p., 1 h, mean ± SEM): 2220 ± 1250 ng/mL
concentration at 1.5 h ([1]; male, ICR, mouse, ip, plasma, 50 mg/kg i.p., 1.5 h, mean ± SEM): 717 ± 222 ng/mL
Concentration (μM/L) ([1]; plasma, 50 mg/kg i.p., 0.5 h, mean ± SEM): 7.64 ± 0.61 µM
Concentration (μM/L) ([1]; plasma, 50 mg/kg i.p., 1 h, mean ± SEM): 7.39 ± 4.17 µM
Concentration (μM/L) ([1]; plasma, 50 mg/kg i.p., 1.5 h, mean ± SEM): 2.39 ± 0.74 µM
IC50 ([2]; Mus musculus, DRG neuron, n = 5): 5.1 ± 0.04 µM
reduction in IK currents ([2]; at plasma concentration (around 7 µM)): around 58%
effect on TRPA1 currents and AITC-induced TRPA1 currents (TRPA1 channels): did not enhance any TRPA1 currents or inhibit AITC-induced TRPA1 currents either
inhibitory ratio (Nav1.7 channel; 30 µM): 39 ± 5%
IDrug/IControl (Nav1.7 channel; 30 μM, HEK293): 0.61 ± 0.05
selectivity Nav1.7 vs Nav1.8 (Nav1.7 channel; 30 μM, no significant difference between Nav1.7 and Nav1.8): non-selective Nav channel inhibitor
V1/2 of activation, TTX-R currents ([3]; 30 μM, control −16.82 ± 0.72 mV): −20.14 ± 0.87 mV
V1/2 of steady-state inactivation, TTX-R currents ([3]; 30 µM, control −39.43 ± 0.66 mV): −49.99 ± 0.67 mV
concentration at which significant reduction in number of action potentials started [4]: 10 µM
action potential amplitude ([4]; 1 μM): 95.00 ± 5.65 mV
action potential amplitude ([4]; 3 μM): 93.40 ± 8.27 mV
action potential amplitude ([4]; 10 μM): 86.80 ± 9.75 mV
action potential amplitude ([4]; 30 μM): 74.40 ± 7.08 mV
firing frequency of DRG neurons ([4]; 1~30 μM): dose-dependently inhibited the firing frequency
reduction of writhing number ([5]; 30 mg/kg i.p.): approximately 60%
reduction of writhing number ([5]; 50 mg/kg i.p.): ~80%
